Eleven compounds from US20020183256A1, “Cytostatic-integrin conjugates having specifically cleavable linking units” (priority 2000, published 2002) can be followed below.

In one series the test system is B16F10. Put plainly: Growth inhibition test (MTT), cytotoxic action on tumour cell lines. It is filed as cell-based, mouse. The method, then:
(§1) The human large intestine cell lines SW 480 and HT29 (ATCC No. CCL 228 and HTB38 and the mouse melanoma cell line B16F10 (CRL 6475) were grown to confluence in Roux dishes in RPMI 1640 medium with addition of 10% FCS. They were then trypsinized and taken up in RPMI plus 10% FCS to a cell count of 50,000 cells or, for B16F10, 20,000 cells per ml. 100 μl of cell suspension/well were added to a 96 microwell plate and incubated at 37° C. for 1 day in a CO2 incubator. A further 100 μl of RPMI medium and 1 μl of DMSO were then added with the test substances. The growth was checked after day 6. For this, 25 μl of MTT solution (3-(4,5-dimethylthiazol-2-yl)-2,5-diphenyltetrazolium bromide) was added to each well at a starting concentration of 5 mg/ml of H2O. The plate was incubated at 37° C. for 5 hours in a CO2 incubator. The medium was then aspirated and 100 μl of i-propanol/well were added. After shaking with 100 μl of H2O for 30 min, the extinction was measured at 595 nm using a Multiplate Reader (BIO-RAD) 3550-UV).
(§2) The cytostatic action is indicated in Table 2 as an IC50 value, in each case for the individual cell lines.

In the next series the test system is HT29. The series is described as above. It is filed as cell-based, human. On the procedure:
as §1, §2

Another series relates to SW 480. The description is as above. In kind it is cell-based, human. On the procedure: as §1, §2
Another series deals with T1, MMP-2 (Homo sapiens, UniProt P08253).
T1 construct: purchased Calbiochem
T1 sequence (P08253 110-660): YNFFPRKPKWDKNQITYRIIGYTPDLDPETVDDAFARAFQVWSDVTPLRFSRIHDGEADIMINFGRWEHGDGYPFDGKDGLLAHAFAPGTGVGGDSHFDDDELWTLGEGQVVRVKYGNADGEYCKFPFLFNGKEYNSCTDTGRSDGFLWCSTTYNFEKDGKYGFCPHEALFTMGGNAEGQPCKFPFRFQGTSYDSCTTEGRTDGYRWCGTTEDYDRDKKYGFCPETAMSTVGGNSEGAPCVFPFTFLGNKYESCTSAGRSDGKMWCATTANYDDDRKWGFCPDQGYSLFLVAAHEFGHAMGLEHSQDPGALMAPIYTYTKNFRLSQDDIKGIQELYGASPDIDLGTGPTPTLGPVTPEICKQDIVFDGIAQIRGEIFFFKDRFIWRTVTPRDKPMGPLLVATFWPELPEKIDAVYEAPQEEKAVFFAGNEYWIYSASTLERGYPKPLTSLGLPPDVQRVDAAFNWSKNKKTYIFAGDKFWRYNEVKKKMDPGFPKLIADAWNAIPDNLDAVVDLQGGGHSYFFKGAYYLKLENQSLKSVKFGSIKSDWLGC
The series is described as follows: Cleavage of conjugates by MMP-2 in buffer (HPLC). It is filed as biochemical. The note with it: after 6 h incubation with MMP-2; buffer pH 7.5. On the procedure: 2.5 μl MMP-2 (Calbiochem) with a specific activity of 60 μU/μl are incubated with 10 nM of the conjugates exemplified in the example series 1-25 in 1 ml of a medium consisting of 50 mM Tris-HCl pH 7.5, 0.2 M NaCl, 10 mM CaCL2*2H2O and 0.05% Brij 35. The enzyme mediated cleavage of the conjugates is detected by HPLC analysis using an RP18 (5 μM) column with 70% HClO4/water (0.4% v/v) as eluent A and acentonitrile as eluent B (UV detection at […]). The efficiency of the cleavage is assessed by comparing the peak areas of the intact conjugate (starting material) and the cleavage product (tripeptide conjugate of camptothecin) after 6 h and 24 h incubation (cf. Table 5).

The target of the next series is T2, αvβ3 receptor (Homo sapiens, UniProt P05106+P06756).
T2 construct: αvβ3 from human A375 cells was purified; endogenous in cells; host or cells: human A375 cells (receptor purified from the cells, analogous to Wong et al. 1996)
T2 sequence (P06756 31-889 limits assumed): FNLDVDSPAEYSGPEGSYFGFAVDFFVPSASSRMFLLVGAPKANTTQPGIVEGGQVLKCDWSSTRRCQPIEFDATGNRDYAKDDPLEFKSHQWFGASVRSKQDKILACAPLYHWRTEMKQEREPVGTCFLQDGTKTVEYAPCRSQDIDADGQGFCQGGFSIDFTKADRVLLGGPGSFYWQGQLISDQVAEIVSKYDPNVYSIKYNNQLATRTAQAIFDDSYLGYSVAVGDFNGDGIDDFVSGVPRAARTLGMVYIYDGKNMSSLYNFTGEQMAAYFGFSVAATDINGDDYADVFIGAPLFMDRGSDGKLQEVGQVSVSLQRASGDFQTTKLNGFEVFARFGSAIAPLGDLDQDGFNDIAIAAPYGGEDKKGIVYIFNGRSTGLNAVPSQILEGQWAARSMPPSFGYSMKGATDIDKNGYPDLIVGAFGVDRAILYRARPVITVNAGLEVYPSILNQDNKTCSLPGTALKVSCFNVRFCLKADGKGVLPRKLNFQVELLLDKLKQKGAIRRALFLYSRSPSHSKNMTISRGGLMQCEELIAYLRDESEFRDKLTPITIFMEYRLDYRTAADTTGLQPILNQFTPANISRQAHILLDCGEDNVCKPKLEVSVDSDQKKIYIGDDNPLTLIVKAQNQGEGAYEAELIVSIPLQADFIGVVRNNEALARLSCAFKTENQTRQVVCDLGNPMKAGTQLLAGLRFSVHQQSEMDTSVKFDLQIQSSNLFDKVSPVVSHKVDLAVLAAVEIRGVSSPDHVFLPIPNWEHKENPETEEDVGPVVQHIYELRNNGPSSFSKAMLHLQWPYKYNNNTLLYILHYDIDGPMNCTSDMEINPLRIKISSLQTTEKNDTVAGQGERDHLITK
T2 sequence (P06756 891-1048 partner limits assumed): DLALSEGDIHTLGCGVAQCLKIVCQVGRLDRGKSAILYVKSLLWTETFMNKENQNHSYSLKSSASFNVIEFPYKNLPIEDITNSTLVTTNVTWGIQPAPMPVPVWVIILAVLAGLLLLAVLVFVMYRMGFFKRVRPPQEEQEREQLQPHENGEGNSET
T2 sequence (P05106 27-788): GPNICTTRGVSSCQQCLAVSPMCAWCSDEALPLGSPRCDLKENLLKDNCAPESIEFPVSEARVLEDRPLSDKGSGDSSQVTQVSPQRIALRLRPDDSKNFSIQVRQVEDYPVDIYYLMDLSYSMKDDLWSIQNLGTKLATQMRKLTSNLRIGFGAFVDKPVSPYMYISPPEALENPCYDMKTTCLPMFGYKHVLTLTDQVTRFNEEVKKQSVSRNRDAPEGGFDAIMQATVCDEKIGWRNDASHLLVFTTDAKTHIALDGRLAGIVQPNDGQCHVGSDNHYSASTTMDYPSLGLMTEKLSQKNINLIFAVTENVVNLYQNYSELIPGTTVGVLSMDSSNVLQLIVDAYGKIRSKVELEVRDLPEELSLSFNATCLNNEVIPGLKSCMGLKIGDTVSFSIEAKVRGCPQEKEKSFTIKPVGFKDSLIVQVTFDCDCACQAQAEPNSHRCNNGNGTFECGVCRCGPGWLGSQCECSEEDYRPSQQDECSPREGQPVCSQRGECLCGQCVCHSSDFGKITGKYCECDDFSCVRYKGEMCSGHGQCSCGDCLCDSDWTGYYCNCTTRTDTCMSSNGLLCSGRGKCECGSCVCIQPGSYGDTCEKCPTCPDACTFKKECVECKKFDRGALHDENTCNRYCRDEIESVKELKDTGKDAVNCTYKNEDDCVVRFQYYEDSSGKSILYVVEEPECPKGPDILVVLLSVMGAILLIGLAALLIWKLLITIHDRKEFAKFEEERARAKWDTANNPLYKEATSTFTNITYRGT
The series is described as follows: αvβ3 binding test (echistatin displacement, WGA SPA beads). The note with it: αvβ3 from human A375 cells. The method, then: αvβ3 from human A375 cells was purified analogously to a procedure which was described by Wong et al. (Molecular Pharmacology, 50, 529-537 (1996)). In each case, 10 μl of αvβ3 (5 ng) in TBS pH 7.6, 2 mM CaCl2, 1 mM MgCl2, 1% n-octylglucopyranoside (Sigma); 10 μl of test substance in TBS pH 7.6, 0.1% DMSO and 45 μl of TBS pH 7.6, 2 mM CaCl2, 1 mM MgCl2, 1 mM MnCl2 were incubated at room temperature for 1 h. In each case, 25 μl of WGA SPA beads (Amersham, 4 mg/ml) and 10 μl of echistatin (0.1 μCi, Amersham, chloramine-T labelled) were then added. After 16 hours at room temperature, the samples were measured in a scintillation measuring apparatus (Wallac 1450).

The mark [1] stands for this setting: read-out: IC50 values of the binding to the αvβ3 receptor.
The mark [2] stands for this setting: B16F10, MTT after day 6, read-out: IC50 values of the cytotoxic action on tumour cell lines, B16F10.
[3] abbreviates: HT29, MTT after day 6, read-out: IC50 values of the cytotoxic action on tumour cell lines, HT29.
Where [4] appears, read: SW480, MTT after day 6, read-out: IC50 values of the cytotoxic action on tumour cell lines, SW480.
Where [5] appears, read: IC50 values of the binding to the αvβ3 receptor.

Structures are written as SMILES. pIC50: −log10 of the molar value. Like-named read-outs stand apart in the source and are kept apart here. *1 amine or outer side, *2 acyl side, *3 side chain or, on linkers, in order; H or OH if unused. Where a SMILES comes first, the peptide text is derived from it. [ ]: non-standard residue; d: D form. The star is where a group is joined. X6 = O=C(O)CC(NS(=O)(=O)c1ccc(-c2cccc(NC(=O)Nc3nc4ccccc4[nH]3)c2)cc1)c1cccc(N*)c1; Camptothecin(20R,20-O) = CC[C@]1(O*)C(=O)OCc2c1cc1n(c2=O)Cc2cc3ccccc3nc2-1; X2 = CCCNC(=O)Nc1cccc(S(=O)(=O)Nc2cccc(C(CC(=O)O)NC(=O)Nc3ccc(N*)cc3)c2)c1; X1 = CCCNC(=O)Nc1cccc(S(=O)(=O)Nc2cccc(C(CC(=O)O)N*)c2)c1; NH(1,4-C6H4)NHCS = S=C(Nc1ccc(N[*:1])cc1)[*:2]; CO = O=C([*:1])[*:2]

What is called pIC50 is −log10 of the IC50, conventionally taken in molar units. As to `CCCNC(=O)Nc1cccc(S(=O)(=O)Nc2cccc(C(CC(=O)O)NC(=O)Nc3ccc(NC(=S)N4CCC[C@@H]4C(=O)N[C@@H](CC(C)C)C(=O)NCC(=O)N[C@H](CC(C)C)C(=O)N[C@H](Cc4c[nH]cn4)C(=O)N[C@@H](C(=O)O[C@@]4(CC)C(=O)OCc5c4cc4n(c5=O)Cc5cc6ccccc6nc5-4)C(C)C)cc3)c2)c1` (single isomer, unassigned) [Example 3], the negative logarithm of the IC50 (pIC50) was 6.22 with B16F10 (mouse, 6 days); 6.70 with HT29 (human, 6 days); 6.82 in the series on SW 480 (human, 6 days); 7.35 on αvβ3 receptor (setting [1]). On MMP-2, the “MMP-2 mediated cleavage Peak area product/educt x100” value is 25.
Take `CCCNC(=O)Nc1cccc(S(=O)(=O)Nc2cccc(C(CC(=O)O)NC(=O)Nc3ccc(NC(=S)N4CCC[C@@H]4C(=O)N[C@@H](CC(C)C)C(=O)NCC(=O)N[C@H](CC(C)C)C(=O)N[C@H](CC(N)=O)C(=O)N[C@@H](C(=O)O[C@@]4(CC)C(=O)OCc5c4cc4n(c5=O)Cc5cc6ccccc6nc5-4)C(C)C)cc3)c2)c1` (single isomer, unassigned) [Example 11]: the pIC50 was 6.40 in the series on B16F10 (mouse, 6 days); 6.70 in the series with HT29 (human, 6 days); 6.82 with SW 480 (human, 6 days); 6.52 on αvβ3 receptor (setting [1]). Besides, the “MMP-2 mediated cleavage Peak area product/educt x100” value on MMP-2 is 20.
Consider `CC[C@]1(OC(=O)[C@H](NC(=O)[C@@H](Cc2c[nH]cn2)NC(=O)[C@@H](CC(C)C)NC(=O)CNC(=O)[C@H](CC(C)C)NC(=O)[C@H]2CCCN2C(=O)Nc2cccc(C(CC(=O)O)NS(=O)(=O)c3ccc(-c4cccc(NC(=O)Nc5nc6ccccc6[nH]5)c4)cc3)c2)C(C)C)C(=O)OCc2c1cc1n(c2=O)Cc2cc3ccccc3nc2-1` (stereo partly drawn) [Example 7] ({X6-CO}-[dP]LG[dL][dH][dV]-{Camptothecin(20R,20-O)}), for which the pIC50 in the series with B16F10 (setting [2]) was 6.22; in the series on HT29 (setting [3]) it was 6.82; in the series with SW 480 (setting [4]), 6.82; at αvβ3 receptor (setting [5]), 6.15.
On to `CCCNC(=O)Nc1cccc(S(=O)(=O)Nc2cccc(C(CC(=O)O)NC(=O)Nc3ccc(NC(=S)N4CCCC4C(=O)NC(CC(C)C)C(=O)NCC(=O)N[C@H](CC(C)C)C(=O)N[C@@H](C(=O)O[C@@]4(CC)C(=O)OCc5c4cc4n(c5=O)Cc5cc6ccccc6nc5-4)C(C)C)cc3)c2)c1` (some centres unmarked) [Example 8], for which the negative-log IC50 (pIC50) in the series with B16F10 (setting [2]) was 6.46; with HT29 (setting [3]) it was 6.82; in the series with SW 480 (setting [4]), 6.70; at αvβ3 receptor (setting [5]), 7.52.
Take `CCCNC(=O)Nc1cccc(S(=O)(=O)Nc2cccc(C(CC(=O)O)NC(=O)Nc3ccc(NC(=S)N4CCC[C@@H]4C(=O)N[C@@H](CC(C)C)C(=O)NCC(=O)N[C@H](CC(C)C)C(=O)N[C@H](CC(N)=O)C(=O)N[C@@H](C(=O)O[C@@]4(CC)C(=O)OCc5c4cc4n(c5=O)Cc5cc6ccccc6nc5-4)C(C)C)cc3)c2)c1` (some centres unmarked) [Example 9]: the pIC50 is 6.40 in the series on B16F10 (mouse, 6 days); 7.10 in the series on HT29 (human, 6 days); 7.22 in the series on SW 480 (human, 6 days); 7.52 on αvβ3 receptor (setting [1]).
For the compound `CCCNC(=O)Nc1cccc(S(=O)(=O)Nc2cccc(C(CC(=O)O)NC(=O)Nc3ccc(NC(=S)N4CCC[C@@H]4C(=O)N[C@@H](CC(C)C)C(=O)NCC(=O)N[C@H](CC(C)C)C(=O)N[C@H](CSC)C(=O)N[C@@H](C(=O)O[C@@]4(CC)C(=O)OCc5c4cc4n(c5=O)Cc5cc6ccccc6nc5-4)C(C)C)cc3)c2)c1` (stereo partly drawn) [Example 13] ({X1-CO}-[NH(1,4-C6H4)NHCS][dP]LG[dL][dC](Me)[dV]-{Camptothecin(20R,20-O)}), the negative logarithm of the IC50 (pIC50) in the series on B16F10 (setting [2]) was 6.40; in the series with HT29 (setting [3]), 7.00; in the series on SW 480 (setting [4]), 7.10; on αvβ3 receptor (setting [5]) it was 7.30.
In the same order, the values of `CCCNC(=O)Nc1cccc(S(=O)(=O)Nc2cccc(C(CC(=O)O)NC(=O)Nc3ccc(NC(=O)N4CCC[C@@H]4C(=O)N[C@@H](CC(C)C)C(=O)NCC(=O)N[C@H](CC(C)C)C(=O)N[C@H](Cc4c[nH]c5ccccc45)C(=O)N[C@@H](C(=O)O[C@@]4(CC)C(=O)OCc5c4cc4n(c5=O)Cc5cc6ccccc6nc5-4)C(C)C)cc3)c2)c1` (stereo partly drawn) [Example 15] ({X2-CO}-[dP]LG[dL][dW][dV]-{Camptothecin(20R,20-O)}) are 5.10, 6.30, 5.82 and 6.30.
With `CCCNC(=O)Nc1cccc(S(=O)(=O)Nc2cccc(C(CC(=O)O)NC(=O)Nc3ccc(NC(=S)N4CCC[C@@H]4C(=O)N[C@@H](CC(C)C)C(=O)NCC(=O)N[C@H](CSC)C(=O)N[C@H](Cc4c[nH]cn4)C(=O)N[C@@H](C(=O)O[C@@]4(CC)C(=O)OCc5c4cc4n(c5=O)Cc5cc6ccccc6nc5-4)C(C)C)cc3)c2)c1` (some centres unmarked) [Example 19], the pIC50 is 6.52 with B16F10 (mouse, 6 days); 7.10 in the series with HT29 (human, 6 days); 7.22 in the series with SW 480 (human, 6 days); 7.70 at αvβ3 receptor (setting [1]).
Consider `CCCNC(=O)Nc1cccc(S(=O)(=O)Nc2cccc(C(CC(=O)O)NC(=O)Nc3ccc(NC(=S)N4CCC[C@@H]4C(=O)N[C@@H](CC(C)C)C(=O)NCC(=O)N[C@H](CC(C)C)C(=O)N[C@H](CCCCN)C(=O)N[C@H](C(=O)O[C@@]4(CC)C(=O)OCc5c4cc4n(c5=O)Cc5cc6ccccc6nc5-4)C(C)C)cc3)c2)c1` (stereo partly drawn) [Example 20] ({X1-CO}-[NH(1,4-C6H4)NHCS][dP]LG[dL][dK]V-{Camptothecin(20R,20-O)}), for which the pIC50 was 6.52 in the series on B16F10 (setting [2]), 7.15 in the series on HT29 (setting [3]), 7.30 with SW 480 (setting [4]) and 7.30 on αvβ3 receptor (setting [5]).
For `CCCNC(=O)Nc1cccc(S(=O)(=O)Nc2cccc(C(CC(=O)O)NC(=O)Nc3ccc(NC(=S)N4CCC[C@H]4C(=O)N[C@@H](CC(C)C)C(=O)NCC(=O)N[C@@H](CC(C)C)C(=O)N[C@@H](CCC(=O)O)C(=O)N[C@H](C(=O)O[C@]4(CC)C(=O)OCc5c4cc4n(c5=O)Cc5cc6ccccc6nc5-4)C(C)C)cc3)c2)c1` (some centres unmarked) [Example 36], the negative logarithm of the IC50 (pIC50) in the series with B16F10 (mouse, 6 day) was 6.52; in the series with HT29 (human, 6 day), 7.00; in the series with SW 480 (human, 6 day) it was 6.82.
With `CCCNC(=O)Nc1cccc(S(=O)(=O)Nc2cccc(C(CC(=O)O)NC(=O)Nc3ccc(NC(=S)N4CCC[C@H]4C(=O)N[C@@H](CC(C)C)C(=O)NCC(=O)N[C@@H](CC(C)C)C(=O)N4CCC[C@H]4C(=O)N[C@H](C(=O)O[C@]4(CC)C(=O)OCc5c4cc4n(c5=O)Cc5cc6ccccc6nc5-4)C(C)C)cc3)c2)c1` (some centres unmarked) [Example 38], the figures for the pIC50 with B16F10 (setting [2]), in the series with HT29 (setting [3]) and in the series on SW 480 (setting [4]) were 6.00, 6.82 and 6.70, respectively.
